From patent publication US20180237399A1, “COMPOUNDS HAVING AGONISTIC EFFECT AGAINST GPR84, PREPARATION METHOD FOR COMPOUNDS AND USE OF COMPOUNDS” (SHANGHAI INSTITUTE OF MATERIA MEDICA, CHINESE ACADEMY OF …, priority 2015, published 2018)

target: T1, GPR84 (Homo sapiens, UniProt Q9NQS5); test: not given; conditions: in words; cited from earlier work
Target sequence in this assay (Q9NQS5 whole entry, species assumed): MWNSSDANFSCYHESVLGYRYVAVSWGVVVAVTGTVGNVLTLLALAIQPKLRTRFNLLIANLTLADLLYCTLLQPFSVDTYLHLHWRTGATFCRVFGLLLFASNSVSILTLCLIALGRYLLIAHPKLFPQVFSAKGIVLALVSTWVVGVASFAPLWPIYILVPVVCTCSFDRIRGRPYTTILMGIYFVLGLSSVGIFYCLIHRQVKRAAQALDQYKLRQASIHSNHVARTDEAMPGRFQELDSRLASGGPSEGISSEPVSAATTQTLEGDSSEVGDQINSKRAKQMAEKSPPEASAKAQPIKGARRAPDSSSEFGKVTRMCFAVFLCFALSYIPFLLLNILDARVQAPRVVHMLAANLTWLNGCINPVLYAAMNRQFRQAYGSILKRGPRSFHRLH

Q: For `CCCCCCCC(O)CC(=O)O` (stereo not shown) [3-OH—C10], which GPR84 agonist activities is on record?
A: some GPR84 agonist activities

Q: With `CCCCCCCCC(O)C(=O)O` (stereo not shown) [2-OH—C10] as the compound, how does the GPR84 agonist activities read?
A: some GPR84 agonist activities

Q: For `CCCCCCCCCC(O)CC(=O)O` (stereo not shown) [3-OH—C12], which GPR84 agonist activities is on record?
A: some GPR84 agonist activities

Q: For `CCCCCCCCCCC(O)C(=O)O` (stereo not shown) [2-OH—C12], which GPR84 agonist activities is on record?
A: some GPR84 agonist activities

target: T1, GPR84; test: not given; conditions: CHO-GPR84 cells, cAMP assay; read-out: potencies (GPR84 agonists); cited from earlier work
Target sequence in this assay (Q9NQS5 whole entry, species assumed): as above

Q: With `CCCCCCCCCCCC(=O)O` [lauric acid] as the compound, how does the EC50 read?
A: 9000 nM

target: T1, GPR84; test: Detection of cytoplasmic calcium ion concentration with Fluo-4 fluorescent dye tracer assay (GPR84 agonist activity); assay type: cell-based; parameters: expressed in transfected cells; host or cells: HEK293; conditions: HEK293 cell line transfected with GPR84 and G16; Fluo-4 calcium fluorescence
Protocol: Detection of Cytoplasmic Calcium Ion Concentration with Fluo-4 Fluorescent Dye Tracer Assay
The GPR84 agonist activity of the compounds of the invention was tested.
The human GPR84 cell line was obtained by transfecting a plasmid encoding the GPR84 and G16 proteins in the HEK293 cell line. The fluorescent dye Fluo-4 AM was purchased from Invitrogen.
Intracellular Ca^2+ ion is a very important second messenger of G protein-coupled receptor signaling pathway. […] Fluo-4 is a Ca^2+ ion-specific fluorescent probe that binds quantitatively to Ca^2+ ions and emits fluorescence. Therefore, fluorescence assay was used to detect the agonistic activity of compounds in 96-well or 384-well flat bottom microplates. The GPR84 cells were incubated with the Fluo-4 fluorescent dye and added with different concentrations of compounds for stimulation. The changes in the intracellular calcium concentration were detected by the fluorescence intensity of dyes.
• 1. […] The pH of the solution was adjusted to 7.4 with hydrochloric acid or NaOH. The solution was filtered, and stored at 4° C. for one month. • 2. Preparation of Ca^2+ buffer: Firstly, a 560 mM D-glucose (100×) stock solution and a 250 mM Sulfinpyrazone (1000×) stock solution were prepared. Then, to 100 mL of HBSS, was added BSA (0.5 g), 560 mM D-glucose stock solution (1 mL) and 250 mM Sulfinpyrazone (100 μL). […] The Ca^2+ buffer was mixed and used as freshly prepared. • 3. Preparation of dyes solution: Firstly, a stock solution of 3% Cremophor EL (100×) in PBS and a stock solution of 2 mM Fluo-4 (1000×) in DMSO was prepared. Secondly, one milliliter of dye solution was prepared by mixing 1 μL of 2 mM Fluo-4 AM with 10 μL of 3% Cremophor EL and diluting with 1 mL of Ca^2+ buffer and mixed. • 4. The GPR84 cells were cultured in a 96-well plate at a starting density of 4×10^4 cells. The cells were continually cultured for more than 24 hours so that the cell density was 80-90% for detection. • 5. The culture fluid was removed from the cells to be tested. The cells were added freshly prepared dyes and incubated in a 37-degree incubator for 40 minutes to 50 minutes. • 6. Preparation of […] solution: Compounds are dissolved and diluted to 3-fold the final working concentration with freshly prepared Ca^2+ buffer. If compounds are dissolved in DMSO, the final DMSO concentration should not exceed 1%. • 7. After the incubation completed, the dye was removed. The cells were washed with Ca^2+ buffer and then incubated with an additional 50 μL of Ca^2+ buffer for 5 to 10 minutes. • 8. The cells were stimulated with 25 μL/well of Ca^2′ buffer containing different concentrations of the compound. The plate was read by using the FlexStation III Multi-Mode Microplate Reader. The changes in the intracellular calcium concentration were detected by the fluorescence intensity of dyes.
Target sequence in this assay (Q9NQS5 whole entry): as the sequence (Q9NQS5 whole entry, species assumed) above

Q: With `CC(C)CCCSc1nc(O)cc(O)n1` [LY228-6b] as the compound, how does the EC50 read?
A: 641 nM

Q: For `CCCCCCCSc1nc(O)cc(O)n1` [LY242-7], which EC50 is on record?
A: 231 nM

Q: Which EC50 does the source give for `CCCCc1ccc(-c2cc(O)cc(O)n2)cc1` [LY243] here?
A: 6.1 nM

Q: For `CCCCCCCC(C)c1nc(O)cc(O)n1` (stereo not shown) [LY238-c], which EC50 is on record?
A: 299 nM

Q: With `Oc1cc(O)nc(SCCCCCc2ccccc2)n1` [LY290-a] as the compound, how does the EC50 read?
A: 1080 nM

Q: For `CCCCCCCCc1cc(=O)[nH]c(=O)[nH]1` [LY224-c], which EC50 is on record?
A: 811 nM

Q: With `CCCCCCCCNc1nc(O)cc(O)n1` [LY239] as the compound, how does the EC50 read?
A: 6.14 nM

Q: For `Oc1cc(O)nc(SCCCc2ccccc2)n1` [LY262-a], which EC50 is on record?
A: 573 nM

Q: With `CC(C)CCCc1nc(O)cc(O)n1` [LY196b] as the compound, how does the EC50 read?
A: 2100 nM

Q: Which EC50 does the source give for `O=c1cc(O)nc(SCCc2ccc(F)cc2)[nH]1` [LY266-a] here?
A: 2940 nM

Q: For `CC/C=C\CCSc1nc(O)cc(O)n1` [LY226], which EC50 is on record?
A: 924 nM

Q: For `CCCCCCCCCc1cc(O)cc(O)c1` [LY236], which EC50 is on record?
A: 435 nM

Q: Which EC50 does the source give for `CCCCCCCCCCCCCCSc1nc(O)cc(O)n1` [LY340-14] here?
A: 25700 nM

Q: Which EC50 does the source give for `CCC#CCCSc1nc(O)cc(O)n1` [LY224-a] here?
A: 653 nM

Q: For `C#CCCCSc1nc(O)cc(O)n1` [LY210], which EC50 is on record?
A: 21600 nM

Q: For `CCCCCCCCc1nc(O)cc(O)n1` [LY224-b], which EC50 is on record?
A: 11.4 nM

Q: Which EC50 does the source give for `Oc1cc(O)nc(SCC2CCC2)n1` [LY212] here?
A: 43400 nM

Q: For `CCCCCCCCc1cc(O)cc(O)n1` [LY223], which EC50 is on record?
A: 1.34 nM

Q: With `CCc1ccc(CCc2nc(O)cc(O)n2)cc1` [LY244] as the compound, how does the EC50 read?
A: 88.1 nM

Q: With `CCCCCCCCCCCCSc1nc(O)cc(O)n1` [LY312-12] as the compound, how does the EC50 read?
A: 1160 nM

Q: Which EC50 does the source give for `CCCCCCCCCc1nc(O)cc(O)n1` [LY238] here?
A: 48.7 nM

Q: For `CCCCCCCCc1nc(O)nc(O)n1` [LY225-b], which EC50 is on record?
A: 1020 nM

Q: For `CCCCCCCc1nc(O)cc(O)n1` [LY210-b], which EC50 is on record?
A: 12.7 nM

Q: Which EC50 does the source give for `CCCCCCCCSc1nc(O)cc(O)n1` [LY256-8] here?
A: 264 nM

Q: Which EC50 does the source give for `Oc1cc(O)nc(SCCc2ccccc2)n1` [LY248] here?
A: 3860 nM

Q: With `CCCCCc1nc(O)cc(O)n1` [LY182] as the compound, how does the EC50 read?
A: 3670 nM

Q: For `Oc1cc(O)nc(SCCCCc2ccccc2)n1` [LY276], which EC50 is on record?
A: 435 nM

Q: With `Oc1cc(O)nc(SCCc2cccc(F)c2)n1` [LY266-c] as the compound, how does the EC50 read?
A: 2590 nM

Q: Which EC50 does the source give for `CCCCCCCCCc1cc(O)cc(=O)o1` [LY238-d] here?
A: 3.51 nM

Q: Which EC50 does the source give for `CCCCCCCCc1cc(=O)[nH]c(=S)[nH]1` [LY240] here?
A: 340 nM

Q: For `CCCCCCCCCCCCCCCCSc1nc(O)cc(O)n1` [LY368-16], which EC50 is on record?
A: 11300 nM

Q: Which EC50 does the source give for `CCc1ccc(CSc2nc(O)cc(O)n2)cc1` [LY262-b] here?
A: 271 nM

Q: With `Oc1cc(O)nc(SCCc2ccccc2F)n1` [LY266-b] as the compound, how does the EC50 read?
A: 1990 nM

Q: Which EC50 does the source give for `CCCCCCCc1cc(O)cc(O)n1` [LY209] here?
A: 1.25 nM

Q: With `CCCCCSc1nc(O)cc(O)n1` [LY214-5] as the compound, how does the EC50 read?
A: 2480 nM
